Measurements from US7501425B1, “Bicyclic pyrimidines and bicyclic 3,4-dihydropyprimidines as inhibitors of cellular proliferation” (Warner Lambert Company, priority 1999, dated 2009).
Structures can show the parent of a compound that is named as a salt.

| SMILES | melting point |
| --- | --- |
| CCN(CC)CCOc1ccc(Nc2ncc3c(n2)N(CC)C(=O)N(c2cc(OC)cc(OC)c2)C3)cc1 (as salt: salt) (hydrate or solvate) [Example 53a, 7-[4-(2-Diethylamino-ethoxy)-phenylamino]-3-(3,5-dimethoxy-phenyl)-1-ethyl-3,4-dihydro-pyrimido[4,5-d]pyrimidin-2(1H)-one] | 139 to 141 °C |
| CCN1C(=O)N(c2cc(OC)cc(OC)c2)Cc2cnc(SC)nc21 (hydrate or solvate) [Example 50a, 3-(3,5-Dimethoxy-phenyl)-1-ethyl-7-methylsulfanyl-3,4-dihydro-pyrimido[4,5-d]pyrimidin-2(1H)-one] | 134 to 136 °C |
| CCN(CC)CCCCNc1ncc2c(n1)N(CC)C(=O)N(c1cc(OC)cc(OC)c1)C2 (hydrate or solvate) [Example 53, 7-(4-Diethylamino-butylamino)-3-(3,5-dimethoxy-phenyl)-1-ethyl-3,4-dihydro-pyrimido[4,5-d]pyrimidin-2(1H)-one] | 83 to 85 °C |
| C[S+]([O-])c1ncc2c(n1)N(C1CCCC1)C(=O)NC2 (stereo not drawn) [Example 5, 1-Cyclopentyl-7-methanesulfinyl-3,4-dihydro-pyrimido[4,5-d]pyrimidin-2(1H)-one] | 235 to 236 °C (dec.) |
| CC(C)N1C(=O)NCc2cnc([S+](C)[O-])nc21 (stereo not drawn) [Example 6, 1-Isopropyl-7-methanesulfinyl-3,4-dihydro-pyrimido[4,5-d]pyrimidin-2(1H)-one] | 218 to 219 °C (dec.) |
| COc1ccc(Nc2ncc3c(n2)N(C2CCCC2)C(=O)NC3)cc1 [Example 9, 1-Cyclopentyl-7-(4-methoxyphenylamino)-3,4-dihydro-pyrimido[4,5-d]pyrimidin-2(1H)-one] | 247 to 249 °C (dec.) |
| O=C1NCc2cnc(Nc3ccc(N4CCCCC4)cc3)nc2N1C1CCCC1 [Example 10, 1-Cyclopentyl-7-[4-(piperidin-1-yl)phenylamino]-3,4-dihydro-pyrimido [4,5-d]pyrimidin-2(1H)-one] | 254 to 277 °C (dec.) |
| CN1CCN(c2ccc(Nc3ncc4c(n3)N(C3CCCC3)C(=O)NC4)cc2)CC1 [Example 11, 1-Cyclopentyl-7-[4-(4-methylpiperazin-1-yl)phenylamino]-3,4-dihydro-pyrimido[4,5-d]pyrimidin-2(1H)-one] | 236 to 239 °C (dec.) |
| CCN(CC)CCOc1ccc(Nc2ncc3c(n2)N(C2CCCC2)C(=O)NC3)cc1C [Example 13, 1-Cyclopentyl-7-{3-methyl-4-[2-(diethylamino)ethoxy]phenylamino}-3,4-dihydro-pyrimido[4,5-d]pyrimidin-2(1H)-one] | 175 to 177 °C |
| O=C1NCc2cnc(Nc3ccc(N4CCC(O)CC4)cc3)nc2N1C1CCCC1 [Example 15, 1-Cyclopentyl-7-[4-(4-hydroxypiperidin-1-yl)phenylamino]-3,4-dihydro-pyrimido [4,5-d]pyrimidin-2(1H)-one] | > 200 °C (dec.) |
| O=C1NCc2cnc(Nc3ccc(N4CCCC(O)C4)cc3)nc2N1C1CCCC1 (stereo not drawn) [Example 16, 1-Cyclopentyl-7-[4-(3-hydroxypiperidin-1-yl)phenylamino]-3,4-dihydro-pyrimido[4,5-d]pyrimidin-2(1H)-one] | > 200 °C (dec.) |
| CC1CN(c2ccc(Nc3ncc4c(n3)N(C3CCCC3)C(=O)NC4)cc2)CC(C)N1 (stereo not drawn) [Example 18, 1-Cyclopentyl-7-[4-(3,5-dimethylpiperazin-1-yl)phenylamino]-3,4-dihydro-pyrimido[4,5-d]pyrimidin-2(1H)-one] | > 200 °C (dec.) |
| O=C1NCc2cnc(Nc3ccc(N4CCCCC4CO)cc3)nc2N1C1CCCC1 (stereo not drawn) [Example 19, 1-Cyclopentyl-7-[4-(2-hydroxymethylpiperidin-1-yl)phenylamino]-3,4-dihydro-pyrimido[4,5-d]pyrimidin-2(1H)-one] | 220 to 221 °C |
| O=C1NCc2cnc(Nc3ccc(N4CCC(CCCO)CC4)cc3)nc2N1C1CCCC1 [Example 20, 1-Cyclopentyl-7-{4-[4-(3-hydroxypropyl)piperidin-1-yl]phenylamino}-3,4-dihydro-pyrimido[4,5-d]pyrimidin-2(1H)-one] | > 230 °C |
| CC(C)N1C(=O)NCc2cnc(Nc3ccc(N4CCC(O)CC4)cc3)nc21 [Example 23, 7-[4-(4-Hydroxypiperidin-1-yl)phenylamino]-1-isopropyl-3,4-dihydro-pyrimido[4,5-d]pyrimidin-2(1H)-one] | > 120 °C (dec.) |
| CC(C)N1C(=O)NCc2cnc(Nc3ccc(N4CCC(N(C)C)CC4)cc3)nc21.O=C(O)C(F)(F)F [Example 24, 7-{4-[4-(Dimethylamino)piperidin-1-yl]phenylamino}-1-isopropyl-3,4-dihydro-pyrimido[4,5-d]pyrimidin-2(1H)-one; compound with trifluoroacetic acid] | 215 to 217 °C (dec.) |
| CC(C)N1C(=O)NCc2cnc(Nc3ccc(-n4cccn4)cc3)nc21.O=C(O)C(F)(F)F [Example 25, 1-Isopropyl-7-[4-(pyrazol-1-yl)phenylamino]-3,4-dihydro-pyrimido[4,5-d]pyrimidin-2(1H)-one; compound with trifluoroacetic acid] | 249 to 252 °C (dec.) |
| CN1C(=O)NCc2cnc(Nc3ccc(N4CCC(N(C)C)CC4)cc3)nc21.O=C(O)C(F)(F)F [Example 30, 7-{4-[4-(Dimethylamino)piperidin-1-yl]phenylamino}-1-methyl-3,4-dihydro-pyrimido[4,5-d]pyrimidin-2(1H)-one; compound with trifluoroacetic acid] | 190 to 191 °C (dec.) |

| SMILES | melting point |
| --- | --- |
| CN1CCN(c2ccc(Nc3ncc4cnc(=O)n(C5CCCC5)c4n3)cc2)CC1 [Example 32, 1-Cyclopentyl-7-[4-(4-methylpiperazin-1-yl)phenylamino]pyrimido-[4,5-d]pyrimidin-2(1H)-one] | 220 to 225 °C (dec.) |
| O=c1ncc2cnc(Nc3ccc(N4CCC(O)CC4)cc3)nc2n1C1CCCC1 [Example 33, 1-Cyclopentyl-7-[4-(4-hydroxypiperidin-1-yl)phenylamino]pyrimido[4,5-d]pyrimidin-2(1H)-one] | > 185 °C (dec.) |
| CCN(CC)CCOc1ccc(Nc2ncc3cnc(=O)n(C4CCCC4)c3n2)cc1C [Example 34, 1-Cyclopentyl-7-{3-methyl-4-[2-(diethylamino)ethoxy]-phenylamino}pyrimido[4,5-d]pyrimidin-2(1H)-one] | > 95 °C (dec.) |
| O=c1ncc2cnc(Nc3ccc(N4CCCC(O)C4)cc3)nc2n1C1CCCC1 (stereo not drawn) [Example 35, 1-Cyclopentyl-7-[4-(3-hydroxypiperidin-1-yl)phenylamino]pyrimido[4,5-d]-pyrimidin-2(1H)-one] | > 135 °C (dec.) |
| O=c1ncc2cnc(Nc3ccc(-n4cccn4)cc3)nc2n1C1CCCC1 [Example 36, 1-Cyclopentyl-7-[4-(pyrazol-1-yl)phenylamino]pyrimido[4,5-d]pyrimidin-2(1H)-one] | > 135 °C (dec.) |
| O=c1ncc2cnc(Nc3ccc(N4CCC(CCN5CCOCC5)CC4)cc3)nc2n1C1CCCC1 [Example 39] | > 140 °C (dec.) |
| CC(C)n1c(=O)ncc2cnc(Nc3ccc(N4CCC(N(C)C)CC4)cc3)nc21 [Example 41, 7-{4-[4-(Dimethylamino)piperidin-1-yl]phenylamino}-1-isopropyl-pyrimido[4,5-d]pyrimidin-2(1H)-one] | > 100 °C (dec.) |
| CN(C)C1CCN(c2ccc(Nc3ncc4cnc(=O)n(C)c4n3)cc2)CC1 [Example 46, 7-{4-[4-(Dimethylamino)piperidin-1-yl]phenylamino}-1-methyl-pyrimido[4,5-d]pyrimidin-2(1H)-one] | 198 to 202 °C (dec.) |
| CCNc1nc(SC)ncc1C=Nc1cc(OC)cc(OC)c1 [Example 48a, {5-[(3,5-Dimethoxy-phenylimino)-methyl]-2-methylsulfanyl-pyrimidin-4-yl}-ethyl-amine] | 100 to 105 °C |
| COc1cc(OC)cc(N2Cc3cnc([S+](C)[O-])nc3NC2=O)c1 (stereo not drawn) [Example 51, 3-(3,5-Dimethoxy-phenyl)-7-methanesulfinyl-3,4-dihydro-pyrimido [4,5-d]pyrimidin-2(1H)-one] | 220 to 222 °C |
| CCN(CC)CCCCNc1ncc2c(n1)NC(=O)N(c1cc(OC)cc(OC)c1)C2 [Example 52, 7-(4-Diethylamino-butylamino)-3-(3,5-dimethoxy-phenyl)-3,4-dihydro-pyrimido[4,5-d]pyrimidin-2(1H)-one] | 203 to 207 °C |
| CCNc1nc(SC)ncc1C=Nc1cc(OC)cc(OC)c1Cl [Example 61, {5-[(2-Chloro-3,5-dimethoxy-phenylimino)-methyl]-2-methylsulfanyl-pyrimidin-4-yl}-ethyl-amine] | 196.5 to 198.5 °C |
| CCNc1nc(SC)ncc1CNc1cc(OC)cc(OC)c1Cl [Example 62, {5-[(2-Chloro-3,5-dimethoxy-phenylamino)-methyl]-2-methylsulfanyl-pyrimidin-4-yl}-ethyl-amine] | 116.5 to 118.5 °C |
| CCN1C(=O)N(c2cc(OC)cc(OC)c2Cl)Cc2cnc(SC)nc21 [Example 63, 3-(2-Chloro-3,5-dimethoxy-phenyl)-1-ethyl-7-methylsulfanyl-3,4-dihydro-pyrimido[4,5-d]pyrimidin-2(1H)-one] | 189 to 191 °C |
| COc1cc(OC)cc(N2Cc3cnc(SC)nc3N=C2N)c1 [Example 66, 3-(3,5-Dimethoxy-phenyl)-7-methylsulfanyl-3,4-dihydro-pyrimido [4,5-d]pyrimidin-2-ylamine] | 198 to 204 °C |
| C=CCn1c(=O)c2cnc(-n3ccnc3)nc2n(C(C)C)c1=O [Example 68, 3-Allyl-7-(imidazol-1-yl)-1-isopropyl-1H-pyrimido [4,5-d]pyrimidine-2,4-dione] | 158 to 160 °C |
| COc1ccc(Cn2c(=O)c3cnc(-n4ccnc4)nc3n(C(C)C)c2=O)cc1 [Example 69, 7-(Imidazol-1-yl)-1-isopropyl-3-(4-methoxybenzyl)-1H-pyrimido[4,5-d]pyrimidine-2,4-dione] | 148 to 150 °C (dec.) |
| COc1ccc(Cn2c(=O)c3cnc(Nc4ccc(N5CCN(C)CC5)cc4)nc3n(C(C)C)c2=O)cc1 [Example 71, 1-Isopropyl-3-(4-methoxybenzyl)-7-[4-(4-methylpiperazin-1-yl)phenylamino]-1H-pyrimido[4,5-d]pyrimidine-2,4-dione] | 215 to 216 °C |
